Assay results reported in patent publication US20050053555A1, “Appetite control compositions and methods of use” (Crave Busters, LLC., priority 2003, published 2005).

System: sweetness taste receptors of the tongue
Assay: blocking the sense of sweetness by topical delivery to mouth and tongue
Assay type: in vivo
Details: about 10 mg to about 80 mg glycyrrhizin delivered concurrently with gymnemic acid
Text: Without being bound to any particular theory of action, it is currently believed that the appetite control compositions according to the invention deliver a relatively small dose of an active ingredient, gymnemic acid, directly to the sweetness taste receptors of the tongue, which blocks the sense of sweetness and thereby produces appetite control.
Gymnema sylvestre is commonly called Gurmar. It is well known in the art as a “sugar blocker.” Gymnema sylvestre contains the bitter principle gymnemic acid, which is well known for its ability to bind to the sweetness taste receptors on the tongue and to sugar absorption sites in the gut. Formerly, Gymnema sylvestre and extracts standardized to deliver gymnemic acid have been incorporated into traditional dosage forms to take advantage of its ability to block the absorption of sugar from the gut. […]
The appetite control compositions according to the invention include Gymnema sylvestre herb or, preferably, an extract of Gymnema sylvestre herb designed to maximize the quantity of gymnemic acid it contains. […]
In some embodiments, the appetite control compositions according to the invention include Glycyrrhiza glabra root or, preferably, an extract of Glycyrrhiza glabra root designed to maximize the quantity of glycyrrhizin it contains. […]

With `CC1(C)[C@@H](O[C@H]2O[C@H](C(=O)O)[C@@H](O)[C@H](O)[C@H]2O[C@@H]2O[C@H](C(=O)O)[C@@H](O)[C@H](O)[C@H]2O)CC[C@]2(C)[C@H]3C(=O)C=C4[C@@H]5C[C@@](C)(C(=O)O)CC[C@]5(C)CC[C@@]4(C)[C@]3(C)CC[C@@H]12` [glycyrrhizin] the “effect on quantity of gymnemic acid required to block the sense of sweetness for 1 to 2 hours” value was “effectively reduces the quantity of gymnemic acid required”.
